Assay results taken from patent US20250249051A1, “MICROBIOME COMPOSITION FOR IMPROVING MUSCLE STRENGTH USING HEAT-TREATED FERMENTED CULTURE COMPLEX OF LACTIPLANTIBACILLUS PLANTARUM KM2” (KOOKMINBIO, CORP., priority 2024, published 2025).
Marks after values point to notes of the source that are not given here.

Assays:
C57BL/6J mice [1] = test: Body weight and body composition (DEXA) in dexamethasone-induced muscular atrophy mice; type: in vivo; conditions: week 7, oral; KLP-KM2 900 and 1800 mg/kg, OXM 50 mg/kg; vs DEX group
Procedure: (§1) 7-week-old male C57BL/6J mice purchased from OrientBio were used as experimental animals. The environment of an animal breeding room was controlled at temperature of 21±1° C. with relative humidity of 40˜60% and light/dark cycles of 12 hours/day, and feed and drinking water were allowed to be consumed freely. This test was approved by the Institutional Animal Care and Use Committee in Kookmin University (KMU-2023-05) and carried out in accordance with the standard operating instructions. […] Feed ingestion amount and body weight were measured once every two weeks.
Dual energy X-ray absorptiometry (DEXA; Medikors, Seongnam, Korea) was used at week 7 before the sacrifice of experimental animals to measure the body composition of mice, followed by analysis on the changes in muscle mass relative to the body weight.

C57BL/6J mice [2] = test: Biochemical analysis of serum in dexamethasone-induced muscular atrophy mice; type: in vivo; conditions: oxymetholone 50 mg/kg oral 8 weeks, DEX mice
Procedure: as §1
After sacrificing the mice, blood was drawn from the heart and immediately centrifuged (3,000×g, 10 min, 4° C.) to separate the plasma. Creatine phosphokinase (CPK), lactate dehydrogenase (LDH), aspartate aminotransferase (AST), alanine aminotransferase (ALT), and blood urea nitrogen (BUN) were measured using a chemical analyzer (Fuji DRI-CHEM 3500i, Fuji Photo Film, Ltd., Tokyo, Japan).

intestinal microflora = test: Intestinal microflora analysis in animal model (shotgun metagenome sequencing); type: in vivo, mice; conditions: genus level, compared to the DEX group
Procedure: as §1
To identify the effect of the sample on the intestinal microbiota of the animal model, the appendix was removed after animal sacrifice, DNA was extracted, and analysis was performed using Shotgun metagenome sequencing. The extracted DNA was subjected to adapter ligation using the Truseq Nano DNA prep kit for sequencing, and then 8 cycles of PCR were performed to create a library. […] Using Trimmomatic v0.39 (AM Bolger, M Lohse, B Usadel, 2014) for raw reads, removal of low-quality reads and adapters was followed, and in order to eliminate PhiX sequences added during sequencing, trimmed reads were aligned to the PhiX reference genome (NC_001422.1) using BWA v0.7.17-r1188 (Li, Heng, 2013) and then removed with SAMtools v1.15.1 (Li, Heng, et al., 2009). […]

## C[C@]12C/C(=C/O)C(=O)C[C@@H]1CC[C@@H]1[C@@H]2CC[C@@]2(C)[C@H]1CC[C@]2(C)O [OXM, oxymetholone]
C57BL/6J mice [1]
  muscle mass to the total body weight (DEXA): relatively significant increase compared to the DEX group
C57BL/6J mice [2]
  ALT: 43.75 ± 7.96 ^a U/L
  AST: 58.88 ± 11.73 ^a U/L
  BUN: 24.74 ± 1.47 ^a mg/dL
  CPK: 99.13 ± 35.13 ^b U/L
  LDH: 211.38 ± 46.99 ^b U/L
Intestinal microflora
  proportion of Akkermansia: significantly reduced
